Data on four molecules can be found in patent US20030148970A1, “Methods for specifically inhibiting histone deacetylase-4” (priority 2001, published 2003).

In data set [1] the test system is A549. Put plainly: Cell Death Detection ELISA apoptosis, A549. It is filed as cell-based, human. Conditions: 48 Hour Treatment; TSA at 100 ng/ml. As to the method: (§1) In order to determine the effect of HDAC OSDNs on cell growth and cell death through apoptosis, A549 or T24 cells, MDAmb231 cells, and HMEC cells (ATCC, Manassas, Va.) were treated with HDAC OSDNs as previously described.
(§2) For the apoptosis study, cells were analyzed using the Cell Death Detection ELISA Plus kit (Roche Diagnostic GmBH, Mannheim, Germany) according to the manufacturer's directions. Typically, 10,000 cells were plated in 96-well tissue culture dishes for 2 hours before harvest and lysis. Each sample was analyzed in duplicate. ELISA reading was done using a MR700 plate reader (DYNEX Technology, Ashford, Middlesex, England) at 410 nm. The reference was set at 490 nm.

The subject of data set [2] is T24. Put plainly: Cell Death Detection ELISA apoptosis, T24. To be noted: 48 Hour Treatment; TSA at 100 ng/ml. It is filed as cell-based, human. How it is done: as §1, §2
A general note: An ELISA detects its analyte on a solid surface through an enzyme-linked reagent.

Data set [3] has as its system MDAmb231. In words: Cell Death Detection ELISA apoptosis, MDAmb231. It is filed as cell-based, human. Conditions: 48 Hour Treatment; TSA at 100 ng/ml. As to the method: as §1, §2
The test system of data set [4] is HMEC. In words: Cell Death Detection ELISA apoptosis, HMEC. It is filed as cell-based, human. To be noted: 48 Hour Treatment; TSA at 100 ng/ml; normal cells. How it is done: as §1, §2
The subject of data set [5] is human HDAC-6 RNA. Put plainly: antisense ODN screen in T24 cells, Northern blot, HDAC-6. Conditions: 100 nM, 24 hours. In kind it is cell-based. How it is done:
Thirteen phosphorothloate ODNs containing sequences complementary to the 5′ or 3′ untranslated regions of the human HDAC-6 gene (GenBank Accession No. AJ011972) were screened as above. […] HDAC-6 MM oligo was created as a control; compared to the antisense oligo, it contains a 7-base mismatch.
(§3) Briefly, human A549 and/or T24 human bladder carcinoma cells were seeded in 10 cm tissue culture dishes one day prior to oligonucleotide treatment. The cell lines were obtained from the American Type Culture Collection (ATCC) (Manassas, Va.) and were grown under the recommended culture conditions. Before the addition of the oligonucleotides, cells were washed with PBS (phosphate buffered saline). Next, lipofectin transfection reagent (GIBCO BRL Mississauga, Ontario, Calif.), at a concentration of 6.25 μg/ml, was added to serum free OPTIMEM medium (GIBCO BRL, Rockville, Md.), which was then added to the cells. The oligonucleotides to be screened were then added directly to the cells (i.e., one oligonucleotide per plate of cells). Mismatched oligonucleotides were used as controls. The same concentration of oligonucleotide (e.g., 50 nM) was used per plate of cells for each oligonucleotide tested.
(§4) Cells were harvested, and total RNAs were analyzed by Northern blot analysis. Briefly, total RNA was extracted using RNeasy miniprep columns (QIAGEN). […]

Data set [6] has as its system human HDAC-6 protein. Put plainly: Western blot of HDAC-6 protein in A549 cells. In kind it is cell-based. To be noted: 50 nM, 48 hours. As to the method: (§5) OSDN treatment conditions were as previously described.
(§6) Cells were lysed in buffer containing 1% Triton X-100, 0.5% sodium deoxycholate, 5 mM EDTA, 25 mM Tris-HCl, pH 7.5, plus protease inhibitors. Total protein was quantified by the protein assay reagent from Bio-Rad (Hercules, Calif.). 100 ug of total protein was analyzed by SDS-PAGE. Next, total protein was transferred onto a PVDF membrane and probed with various HDAC-specific primary antibodies. Rabbit anti-HDAC-1 (H-51), anti-HDAC-2 (H-54) antibodies (Santa Cruz Biotechnologies, Santa Cruz, Calif.) were used at 1:500 dilution. Rabbit anti-HDAC-3 antibody (Sigma, St. Louis, Mo.) was used at a dilution of 1:1000. Anti-HDAC-4 antibody was prepared as previously described (Wang, S. H. et al., (1999) Mol. Cell. Biol. 19:7816-27), and was used at a dilution of 1:1000. Anti-HDAC-6 antibody was raised by immunizing rabbits with a GST fusion protein containing a fragment of HDAC-6 protein (amino acid #990 to #1216, GenBank Accession No. AAD29048). Rabbit antiserum was tested and found only to react specifically to the human HDAC-6 isoform. HDAC-6 antiserum was used at 1:500 dilution in Western blots to detect HDAC-6 in total cell lysates. Horse Radish Peroxidase conjugated secondary antibody was used at a dilution of 1:5000 to detect primary antibody binding. […]
Background: In western blotting, separated proteins are transferred to a membrane and probed.

Data set [7] deals with human cancer cells. In words: cell growth analysis (trypan blue) and apoptosis, cancer cells. It is filed as cell-based. To be noted: 50 nM. As to the method: as §1, §2
Cells were harvested and cell numbers counted by trypan blue exclusion using a hemocytometer. Percentage of inhibition was calculated as (100-AS cell numbers/control cell numbers)%.

In data set [8] the test system is human HDAC-3 RNA. Put plainly: antisense ODN screen in T24 cells, Northern blot, HDAC-3. In kind it is cell-based. Conditions: 100 nM, 24 hours. As to the method: Twenty-one phosphorothioate ODNs containing sequences complementary to the 5′ or 3′ UTR of the human HDAC-3 gene (GenBank Accession No. AF039703) were screened as above. […] HDAC-3 MM oligo was created as a control; compared to the antisense oligo, it contains a a 6-base mismatch.
as §3, §4

Data set [9] has as its system human HDAC-3 protein. Put plainly: Western blot of HDAC-3 protein in A549 cells. In kind it is cell-based. Conditions: 50 nM, 48 hours. How it is done: as §5, §6
Data set [10] has as its system p21 mRNA. Put plainly: RNase protection assay, p21 in A549. In kind it is cell-based, human. Conditions: TSA 250 ng/ml, 16 hours.
Procedure: (§7) As a control, A549 cells were treated by lipofectin with or without TSA (250 ng/ml) treatment for 16 hours. These RNase protection assays were done according to the following procedure. Total RNA from cells was prepared using “RNeasy miniprep kit” from QIAGEN following the manufacturer's manual. Labeled probes used in the protection assays were synthesized using “hStress-1 multiple-probe template sets” from Pharmingen (San Diego, Calif., U.S.A.) according to the manufacturer's instructions. Protection procedures were performed using “RPA II™ Ribonuclease Protection Assay Kit” from Ambion, (Austin, Tx.) following the manufacturer's instructions. Quantitation of the bands from autoradiograms was done by using Cyclone™ Phosphor System (Packard Instruments Co. Inc., Meriden, Conn.).
Data set [11] relates to GADD45 mRNA. In words: RNase protection assay, GADD45 in A549. In kind it is cell-based, human. To be noted: TSA 250 ng/ml, 16 hours.
Procedure: as §7
Data set [12] concerns Bax mRNA. In words: RNase protection assay, Bax in A549. It is filed as cell-based, human. To be noted: TSA 250 ng/ml, 16 hours.
Procedure: as §7
Data set [13] relates to mammalian HDAC. Conditions: Yoshida et al. 1990; cited from earlier work.
For data set [14], the system named is murine erythroleukemia cells. Conditions: Yoshida et al. 1987; cited from earlier work.
The subject of data set [15] is human HDAC-2 RNA. Put plainly: antisense ODN screen in T24 cells, Northern blot, HDAC-2. It is filed as cell-based. Conditions: 100 nM, 24 hours. As to the method:
Twenty-four phosphorothioate ODNs containing sequences complementary to the 5′ or 3′ UTR of the human HDAC-2 gene (GenBank Accession No. U31814) were screened as above. […] HDAC-2 MM was created as a control; compared to the antisense oligo, it contains a 7-base mismatch.
as §3, §4

The test system of data set [16] is human HDAC-2 protein. In words: Western blot of HDAC-2 protein in A549 cells. In kind it is cell-based. Conditions: 50 nM, 48 hours. As to the method: as §5, §6

On to “HDAC-6 AS: 5′-CAGGCTGGAATGAGCTACAG-3′, antisense to human HDAC6 3′-UTR, AJ011972 (chemistry not given here)”, for which the “Apoptosis, A549” value in [1] is “− (“−”: <= 2× fold over non-specific background)”. Moreover, in [2], the “Apoptosis, T24” value is reported as “− (“−”: <= 2× fold over non-specific background)”. In addition, in [3], the “Apoptosis, MDAmb231” value is on record as “− (“−”: <= 2× fold over non-specific background)”. Also, the “Apoptosis, HMEC” value in data set [4] is on record as “− (“−”: <= 2× fold over non-specific background)”. For the same molecule, the “antisense activity, HDAC-6 RNA expression” value in [5] is reported as “antisense activity to human HDAC-6”. Also, the “expression of HDAC-6 protein” value in data set [6] is listed as “specifically inhibits the expression of the respective HDAC isotype protein”. Moreover, in data set [7], the “effect on cancer cell growth and apoptosis” value (from here on “effect”) is “no effect on cancer cell growth or apoptosis”.

As for “HDAC-3 AS: 5′-CGCTTTCCTTGTCATTGACA-3′, antisense to human HDAC3 3′-UTR, AF039703 (chemistry not given here)”, in data set [1], the “Apoptosis, A549” value was “− (“−”: <= 2× fold over non-specific background)”. In addition, the “Apoptosis, T24” value in [2] is given as “− (“−”: <= 2× fold over non-specific background)”. Further, the “Apoptosis, MDAmb231” value in [3] was “− (“−”: <= 2× fold over non-specific background)”. The “Apoptosis, HMEC” value in data set [4] is recorded as “− (“−”: <= 2× fold over non-specific background)”. Further, the “antisense activity, HDAC-3 RNA expression” value in [8] is listed as “antisense activity to human HDAC-3”. Also, the “expression of HDAC-3 protein” value in data set [9] was “specifically inhibits the expression of the respective HDAC isotype protein”. Also, the “effect” value in [7] is given as “no effect on cancer cell growth or apoptosis”.

As to `CC(/C=C/C(=O)NO)=C\[C@@H](C)C(=O)c1ccc(N(C)C)cc1` [TSA, (R)-Trichostatin A], the “Apoptosis, A549” value in data set [1] is “++ (“++”: 3-5× fold)”. Further, in data set [2], the “Apoptosis, T24” value was “++ (“++”: 3-5× fold)”. For the same molecule, in data set [3], the “Apoptosis, MDAmb231” value is “++ (“++”: 3-5× fold)”. The “Apoptosis, HMEC” value in [4] is “+ (“+”: 2-3× fold)”. For the same molecule, in [10], the “fold induction of transcription, p21, A549, TSA vs lipofectin” value is listed as 2.8 fold. Besides, in [11], the “fold induction of transcription, GADD45, A549, TSA vs lipofectin” value is reported as 0.6 fold. For the same molecule, the “fold induction of transcription, Bax, A549, TSA vs lipofectin” value in data set [12] amounted to 0.8 fold. In addition, the “inhibition of mammalian HDAC” value in data set [13] is “potent inhibitor of mammalian HDAC”. For the same molecule, the “induction of differentiation in murine erythroleukemia cells” value in [14] is reported as “potent inducer of differentiation”.

On to “HDAC-2 AS: 5′-GCTGAGCTGTTCTGATTTGG-3′, antisense to human HDAC2 3′-UTR, U31814 (chemistry not given here)”, for which the “Apoptosis, A549” value in data set [1] is listed as “− (“−”: <= 2× fold over non-specific background)”. Besides, the “Apoptosis, T24” value in [2] is “− (“−”: <= 2× fold over non-specific background)”. In [3], the “Apoptosis, MDAmb231” value was “− (“−”: <= 2× fold over non-specific background)”. Also, in [4], the “Apoptosis, HMEC” value was “− (“−”: <= 2× fold over non-specific background)”. The “antisense activity, HDAC-2 RNA expression” value in [15] is given as “antisense activity to human HDAC-2”. Besides, the “expression of HDAC-2 protein” value in data set [16] is “specifically inhibits the expression of the respective HDAC isotype protein”. The “effect” value in data set [7] is “minimal effect on cancer cell growth inhibition”.
